Experimental findings from article PMC2330188 (Acta Crystallographica Section F: Structural Biology and …, 2007) are described below.

The assay concerns the target 5-formyltetrahydrofolate cyclo-ligase (BA4489) (Bacillus anthracis, UniProt A0A6L8PZ12).

5-formyltetrahydrofolate cyclo-ligase (BA4489), sequence (A0A6L8PZ12 2-192 limits assumed): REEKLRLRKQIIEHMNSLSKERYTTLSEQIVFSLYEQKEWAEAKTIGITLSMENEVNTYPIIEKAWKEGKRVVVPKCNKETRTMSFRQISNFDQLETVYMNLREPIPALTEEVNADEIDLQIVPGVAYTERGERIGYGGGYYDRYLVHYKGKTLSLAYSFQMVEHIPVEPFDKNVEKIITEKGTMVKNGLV

Consider `O=P(O)(O)O` [phosphate], for which the “X-ray crystal structure, 1.6 Å” value is “hydrolysed to ADP and inorganic phosphate”.
